Experiments:
Test in all cases: relative viability (nuclei count vs DMSO), 5 days (fraction); higher = more cells survive
[1] = compound: CC[C@H](CO)Nc1nc(NCc2ccccc2)c2ncn(C(C)C)c2n1 [Seliciclib] + CS(=O)(=O)N1CCN(Cc2cc3nc(-c4cccc5[nH]ncc45)nc(N4CCOCC4)c3s2)CC1 [Pictilisib] (partner 1 µM)
In short: (§1)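 Cells from lung cancer lines were seeded into 1536-well plates and, one day later, dosed by pin tool. Treatments were either a single drug or a fixed dose of an anchor drug with five library-drug doses (not always all listed) in √10 steps. After 5 days, nuclei were stained in a one-step fixation (final 0.05% Triton X-100, 1% formaldehyde, 1 ug/ml Hoechst) and counted on 4× images, and relative viability is the treated-to-vehicle nuclei ratio, as the median of duplicate plates.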

[2] = compound: CC[C@H](CO)Nc1nc(NCc2ccccc2)c2ncn(C(C)C)c2n1 [Seliciclib] + N=C(N)NC(=N)NCCc1ccccc1 [Phenformin] (partner 250 µM)
In short: as §1

[3] = compound: CC[C@H](CO)Nc1nc(NCc2ccccc2)c2ncn(C(C)C)c2n1 [Seliciclib] + Cc1nc(NC(=O)N2CCC[C@H]2C(N)=O)sc1-c1ccnc(C(C)(C)C(F)(F)F)c1 [Alpelisib] (partner 2 µM)
In short: as §1

[4] = compound: CC[C@H](CO)Nc1nc(NCc2ccccc2)c2ncn(C(C)C)c2n1 [Seliciclib] + NC(=O)Nc1cc(-c2cccc(F)c2)sc1C(=O)N[C@H]1CCCNC1 [AZD7762] (partner 0.2 µM)
In short: as §1

Cell Line | relative viability ([1]; first compound 0.08 µM) | relative viability ([1]; first compound 0.253 µM) | relative viability ([1]; first compound 0.8 µM) | relative viability ([1]; first compound 2.53 µM) | relative viability ([1]; first compound 8 µM) | relative viability ([2]; first compound 0.08 µM) | relative viability ([2]; first compound 0.253 µM) | relative viability ([2]; first compound 0.8 µM) | relative viability ([2]; first compound 2.53 µM) | relative viability ([2]; first compound 8 µM) | relative viability ([3]; first compound 0.08 µM) | relative viability ([3]; first compound 0.253 µM) | relative viability ([3]; first compound 0.8 µM) | relative viability ([3]; first compound 2.53 µM) | relative viability ([3]; first compound 8 µM) | relative viability ([4]; first compound 0.08 µM) | relative viability ([4]; first compound 0.253 µM) | relative viability ([4]; first compound 0.8 µM) | relative viability ([4]; first compound 2.53 µM) | relative viability ([4]; first compound 8 µM)
NCI-H1563 | 0.649 | 0.621 | 0.681 | 0.567 | 0.691 | 0.754 | 0.63 | 0.651 | 0.626 | 0.664 | 0.952 | 0.872 | 0.954 | 0.927 | 0.882 | – | – | – | – | –
NCI-H1648 | – | – | – | – | – | – | – | – | – | – | – | – | – | – | – | 0.775 | 1.06 | 0.758 | 0.826 | 0.71
NCI-H1650 | 0.579 | 0.631 | 0.526 | 0.466 | 0.354 | 0.436 | 0.525 | 0.462 | 0.424 | 0.264 | – | – | – | – | – | – | – | – | – | –
NCI-H1703 | 0.252 | 0.234 | 0.26 | 0.225 | 0.241 | – | – | – | – | – | 0.322 | 0.421 | 0.288 | 0.354 | 0.229 | 0.132 | 0.147 | 0.135 | 0.126 | 0.111
NCI-H2009 | 0.77 | 1.11 | 0.584 | 0.762 | 0.699 | 0.487 | 0.599 | 0.498 | 0.474 | 0.493 | 1.14 | 1.31 | 1.15 | 1.14 | 1.23 | – | – | – | – | –
NCI-H2023 | 0.227 | 0.224 | 0.232 | 0.164 | 0.182 | 0.41 | 0.417 | 0.411 | 0.468 | 0.312 | 0.548 | 0.542 | 0.523 | 0.58 | 0.531 | – | – | – | – | –
